Molecular target: human APJ receptor (Homo sapiens (Human), UniProt P35414)
Assay: [35S]GTPγS binding assay on membranes from CHO cells stably expressing human APJ receptor
Format: biochemical
Conditions: read-out: Activity hAPJ SPA EC50 IP
Procedure: [^35S]GTPγS Binding The human APJ receptor was cloned by polymerase chain reaction and the gene encoding the receptor was subcloned in pFLAG-CMV™-3 expression vector (Sigma, Saint Louis, Mo. USA) in-house at Amgen. A GTPγS binding assay was performed on membranes prepared from CHO cells stably expressing human APJ receptor. The optimum experimental conditions for the concentrations of GDP, MgCl2, and NaCl in the assay buffer were initially determined. […] Incubation was at RT for 90 min and the microplate was read using a ViewLux™ ultra HTS Microplate Imager (PerkinElmer, Inc.). All the results presented are means of several independent experiments and analyzed by non-linear regression methods using the commercially available program Prism (GraphPad, San Diego, Calif.) providing the EC50 values detailed in Table 13.

Chain of human APJ receptor (P35414 whole entry): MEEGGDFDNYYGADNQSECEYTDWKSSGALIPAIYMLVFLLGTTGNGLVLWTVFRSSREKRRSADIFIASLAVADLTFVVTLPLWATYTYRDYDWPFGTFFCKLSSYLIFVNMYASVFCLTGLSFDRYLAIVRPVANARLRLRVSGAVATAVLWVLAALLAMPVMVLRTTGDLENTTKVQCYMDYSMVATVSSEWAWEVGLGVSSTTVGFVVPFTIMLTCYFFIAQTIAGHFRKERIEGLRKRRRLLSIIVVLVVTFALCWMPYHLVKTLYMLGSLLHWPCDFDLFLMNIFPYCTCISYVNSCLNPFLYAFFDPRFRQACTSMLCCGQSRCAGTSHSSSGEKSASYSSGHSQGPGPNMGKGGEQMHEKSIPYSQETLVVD

Work on `COC[C@@H]1COc2ccc(OC)nc2-c2nnc(NS(=O)(=O)[C@@H](C)[C@H](C)c3ncc(OC)cn3)n21` (single isomer, unassigned) [Example 7.0, (2S,3R)-N-((5R)-10-methoxy-5-(methoxymethyl)-5,6-dihydropyrido[2,3-f][1,2,4]triazolo[4,3-d][1,4]oxazepin-3-yl)-3-(5-methoxy-2-pyrimidinyl)-2-butanesulfonamide or (2S,3R)-N-((5S)-10-methoxy-5-(methoxymethyl)-5,6-dihydropyrido[2,3-f][1,2,4]traizolo[4,3-d][1,4]oxazepin-3-yl)-3-(5-methoxy-2-pyrimidinyl)-2-butanesulfonamide] yielded an EC50 of 250 nM.

With `COC[C@@H]1COc2c(OC)cccc2-c2nnc(NS(=O)(=O)[C@@H](C)[C@H](C)c3ncc(OC)cn3)n21` (single isomer, unassigned) [Example 9.0, (2S,3R)-N-((5R)-8-methoxy-5-(methoxymethyl)-5,6-dihydro[1,2,4]triazolo[4,3-d][1,4]benzoxazepin-3-yl)-3-(5-methoxy-2-pyrimidinyl)-2-butanesulfonamide or (2S,3R)-N-((5S)-8-methoxy-5-(methoxymethyl)-5,6-dihydro[1,2,4]triazolo[4,3-d][1,4]benzoxazepin-3-yl)-3-(5-methoxy-2-pyrimidinyl)-2-butanesulfonamide] the EC50 was 1600 nM.

`COC[C@@H]1COc2ccc(OC)nc2-c2nnc(NS(=O)(=O)[C@@H](C)[C@H](C)c3ncc(C)cn3)n21` (mixture of isomers) [Example 10.0, (2S,3R)-N-((5R)-10-methoxy-5-(methoxymethyl)-5,6-dihydropyrido[2,3-f][1,2,4]triazolo[4,3-d][1,4]oxazepin-3-yl)-3-(5-methyl-2-pyrimidinyl)-2-butanesulfonamide and (2S,3R)-N-((5S)-10-methoxy-5-(methoxymethyl)-5,6-dihydropyrido[2,3-f][1,2,4]triazolo[4,3-d][1,4]oxazepin-3-yl)-3-(5-methyl-2-pyrimidinyl)-2-butanesulfonamide] was tested, and the EC50 was 790 nM.

`COC[C@@H]1COc2ccc(OC)nc2-c2nnc(NS(=O)(=O)[C@@H](C)[C@@H](OC(C)C)c3ncc(C)cn3)n21` (single isomer, unassigned) [Example 15.0, (1S,2S)-N-((5R)-10-methoxy-5-(methoxymethyl)-5,6-dihydropyrido[2,3-f][1,2,4]triazolo[4,3-d][1,4]oxazepin-3-yl)-1-(5-methyl-2-pyrimidinyl)-1-(2-propanyloxy)-2-propanesulfonamide or (1S,2S)-N-((5S)-10-methoxy-5-(methoxymethyl)-5,6-dihydropyrido[2,3-f][1,2,4]triazolo[4,3-d][1,4]oxazepin-3-yl)-1-(5-methyl-2-pyrimidinyl)-1-(2-propanyloxy)-2-propanesulfonamide] was tested, and the EC50 was 37 nM.

`COC[C@@H]1COc2ccc(F)cc2-c2nnc(NS(=O)(=O)[C@@H](C)[C@@H](OC(C)C)c3ncc(C)cn3)n21` (single isomer, unassigned) [Example 26.0, (1S,2S)-N-((5R)-10-fluoro-5-(methoxymethyl)-5,6-dihydro[1,2,4]triazolo[4,3-d][1,4]benzoxazepin-3-yl)-1-(5-methyl-2-pyrimidinyl)-1-(2-propanyloxy)-2-propanesulfonamide or (1S,2S)-N-((5S)-10-fluoro-5-(methoxymethyl)-5,6-dihydro[1,2,4]triazolo[4,3-d][1,4]benzoxazepin-3-yl)-1-(5-methyl-2-pyrimidinyl)-1-(2-propanyloxy)-2-propanesulfonamide] showed an EC50 of 460 nM.

Compound `COC[C@@H]1COc2ccc(F)cc2-c2nnc(NS(=O)(=O)CCc3ncc(C)cn3)n21` (mixture of isomers) [Example 42.0, N-((5R)-10-fluoro-5-(methoxymethyl)-5,6-dihydro[1,2,4]triazolo[4,3-d][1,4]benzoxazepin-3-yl)-2-(5-methyl-2-pyrimidinyl)ethanesulfonamide and N-((5S)-10-fluoro-5-(methoxymethyl)-5,6-dihydro[1,2,4]triazolo[4,3-d][1,4]benzoxazepin-3-yl)-2-(5-methyl-2-pyrimidinyl)ethanesulfonamide] has an EC50 of 4100 nM.
